Data published in ChEMBL document CHEMBL3792365, “Dioxol and dihydrodioxin analogs of 2- and 3-phenylacetonitriles as potent anti-cancer agents with nanomolar activity against a variety of human cancer cells” (2016).

What was measured:
Assay type in all cases: functional
[1] = Growth inhibition of human OVCAR3 cells at 10 uM after 48 hrs by sulforhodamine B assay; settings: OVCAR-3, 48 h, values are per cent of control
[2] = Growth inhibition of human LOXIMVI cells at 10 uM after 48 hrs by sulforhodamine B assay; settings: LOX IMVI, values are per cent of control
[3] = Growth inhibition of human HOP92 cells at 10 uM after 48 hrs by sulforhodamine B assay; settings: HOP-92, 48 h, values are per cent of control
KM12 = assay: Growth inhibition of human KM12 cells at 10 uM after 48 hrs by sulforhodamine B assay; settings: KM12, 48 h, values are per cent of control
A549 = assay: Growth inhibition of human A549/ATCC cells at 10 uM after 48 hrs by sulforhodamine B assay; settings: A549, 48 h, values are per cent of control
[4] = Growth inhibition of human RPMI8226 cells at 10 uM after 48 hrs by sulforhodamine B assay; settings: RPMI-8226, 48 h, values are per cent of control
HT-29 = assay: Growth inhibition of human HT-29 cells at 10 uM after 48 hrs by sulforhodamine B assay; settings: HT-29, 48 h, values are per cent of control
[5] = Growth inhibition of human PC3 cells at 10 uM after 48 hrs by sulforhodamine B assay; settings: PC-3, 48 h, values are per cent of control
[6] = Growth inhibition of human UO31 cells at 10 uM after 48 hrs by sulforhodamine B assay; settings: UO-31, 48 h, values are per cent of control
[7] = Growth inhibition of human UACC257 cells at 10 uM after 48 hrs by sulforhodamine B assay; settings: UACC-257, 48 h, values are per cent of control
MCF7 = assay: Growth inhibition of human MCF7 cells at 10 uM after 48 hrs by sulforhodamine B assay; settings: MCF7, 48 h, values are per cent of control
[8] = Growth inhibition of human OVCAR8 cells at 10 uM after 48 hrs by sulforhodamine B assay; settings: OVCAR-8, 48 h, values are per cent of control
MDA-MB-231 = assay: Growth inhibition of human MDA-MB-231 cells at 10 uM after 48 hrs by sulforhodamine B assay; settings: MDA-MB-231, 48 h, values are per cent of control
CCRF-CEM = assay: Growth inhibition of human CCRF-CEM cells at 10 uM after 48 hrs by sulforhodamine B assay; settings: values are per cent of control
Malme-3M = assay: Growth inhibition of human MALME-3M cells at 10 uM after 48 hrs by sulforhodamine B assay; settings: values are per cent of control
[9] = Growth inhibition of human BT549 cells at 10 uM after 48 hrs by sulforhodamine B assay; settings: BT-549, 48 h, values are per cent of control
SK-MEL-5 = assay: Growth inhibition of human SK-MEL-5 cells at 10 uM after 48 hrs by sulforhodamine B assay; settings: SK-MEL-5, 48 h, values are per cent of control
[10] = Growth inhibition of human MOLT4 cells at 10 uM after 48 hrs by sulforhodamine B assay; settings: MOLT-4, 48 h, values are per cent of control
[11] = Growth inhibition of human HL-60(TB) cells at 10 uM after 48 hrs by sulforhodamine B assay; settings: HL-60, 48 h, values are per cent of control

**Q.** For N#C/C(=C\c1ccc(Cl)cc1Cl)c1ccc2c(c1)OCO2, which growth, % of control at 10 µM [1] is on record?
**A.** 98.4%

**Q.** And the growth, % of control at 10 µM [2]?
**A.** 103%

**Q.** And the growth, % of control at 10 µM [3]?
**A.** 99.9%

**Q.** What about the growth, % of control at 10 µM (KM12) of the same compound?
**A.** 76%

**Q.** What about the growth, % of control at 10 µM (A549) of the same compound?
**A.** 92.3%

**Q.** What about the growth, % of control at 10 µM [4] of the same compound?
**A.** 84.6%

**Q.** And the growth, % of control at 10 µM (HT-29)?
**A.** 89.7%

**Q.** What about the growth, % of control at 10 µM [5] of the same compound?
**A.** 93.4%

**Q.** What about the growth, % of control at 10 µM [6] of the same compound?
**A.** 75.1%

**Q.** And the growth, % of control at 10 µM [7]?
**A.** 93.8%

**Q.** And the growth, % of control at 10 µM (MCF7)?
**A.** 110%

**Q.** And the growth, % of control at 10 µM [8]?
**A.** 104%

**Q.** And the growth, % of control at 10 µM (MDA-MB-231)?
**A.** 119%

**Q.** What about the growth, % of control at 10 µM (CCRF-CEM) of the same compound?
**A.** 93.3%

**Q.** And the growth, % of control at 10 µM (Malme-3M)?
**A.** 76.4%

**Q.** And the growth, % of control at 10 µM [9]?
**A.** 86.4%

**Q.** What about the growth, % of control at 10 µM (SK-MEL-5) of the same compound?
**A.** 98.9%

**Q.** And the growth, % of control at 10 µM [10]?
**A.** 79.2%

**Q.** What about the growth, % of control at 10 µM [11] of the same compound?
**A.** 87.3%

**Q.** For N#C/C(=C\c1cc(F)cc(F)c1)c1ccc2c(c1)OCO2, which growth, % of control at 10 µM [1] is on record?
**A.** 109%

**Q.** And the growth, % of control at 10 µM [2]?
**A.** 105%

**Q.** And the growth, % of control at 10 µM [3]?
**A.** 125%

**Q.** And the growth, % of control at 10 µM (KM12)?
**A.** 97.6%

**Q.** What about the growth, % of control at 10 µM (A549) of the same compound?
**A.** 100%

**Q.** What about the growth, % of control at 10 µM [4] of the same compound?
**A.** 94.7%

**Q.** What about the growth, % of control at 10 µM (HT-29) of the same compound?
**A.** 109%

**Q.** And the growth, % of control at 10 µM [5]?
**A.** 101%

**Q.** And the growth, % of control at 10 µM [6]?
**A.** 104%

**Q.** What about the growth, % of control at 10 µM [7] of the same compound?
**A.** 104%

**Q.** What about the growth, % of control at 10 µM (MCF7) of the same compound?
**A.** 88.4%

**Q.** What about the growth, % of control at 10 µM [8] of the same compound?
**A.** 96.7%

**Q.** And the growth, % of control at 10 µM (MDA-MB-231)?
**A.** 102%

**Q.** What about the growth, % of control at 10 µM (CCRF-CEM) of the same compound?
**A.** 97.7%

**Q.** What about the growth, % of control at 10 µM (Malme-3M) of the same compound?
**A.** 116%

**Q.** What about the growth, % of control at 10 µM [9] of the same compound?
**A.** 94.5%

**Q.** What about the growth, % of control at 10 µM (SK-MEL-5) of the same compound?
**A.** 105%

**Q.** What about the growth, % of control at 10 µM [10] of the same compound?
**A.** 83.1%

**Q.** What about the growth, % of control at 10 µM [11] of the same compound?
**A.** 108%

**Q.** Which results are given for COc1ccc(/C=C(\C#N)c2ccc3c(c2)OCO3)cc1OC?
**A.** growth, % of control at 10 µM [1]: 109%; growth, % of control at 10 µM [2]: 101%; growth, % of control at 10 µM [3]: 110%; growth, % of control at 10 µM (KM12): 96.2%; growth, % of control at 10 µM (A549): 96.6%; growth, % of control at 10 µM [4]: 96.9%; growth, % of control at 10 µM (HT-29): 106%; growth, % of control at 10 µM [5]: 100%; growth, % of control at 10 µM [6]: 88%; growth, % of control at 10 µM [7]: 118%; growth, % of control at 10 µM (MCF7): 87.2%; growth, % of control at 10 µM [8]: 104%; growth, % of control at 10 µM (MDA-MB-231): 106%; growth, % of control at 10 µM (CCRF-CEM): 89.4%; growth, % of control at 10 µM (Malme-3M): 103%; growth, % of control at 10 µM [9]: 91.8%; growth, % of control at 10 µM (SK-MEL-5): 103%; growth, % of control at 10 µM [10]: 85.2%; growth, % of control at 10 µM [11]: 72%
